Each structure is given as a SMILES string.

In the first experiment the target is T1, Human Polymorphonuclear Leukocyte Elastase (Homo sapiens, UniProt P08246).
T1 construct: Crude extract of human polymorphonuclear leukocytes (PMN) containing elastase activity; from tissue; host or cells: human polymorphonuclear leukocytes (crude extract)
T1 sequence (P08246 30-247 limits assumed): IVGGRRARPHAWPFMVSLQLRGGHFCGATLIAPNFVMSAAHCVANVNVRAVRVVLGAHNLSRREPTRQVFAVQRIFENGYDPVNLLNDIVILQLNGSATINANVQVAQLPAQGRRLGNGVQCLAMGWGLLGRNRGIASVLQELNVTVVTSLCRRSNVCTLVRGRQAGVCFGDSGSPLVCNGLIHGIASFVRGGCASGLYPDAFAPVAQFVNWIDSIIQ
In words: Inhibition of human polymorphonuclear leukocyte elastase via hydrolysis of N-t-Boc-alanyl-alanyl-prolylalanine-p-nitroanilide. The experiment is classed as biochemical. Particulars: Table I; crude PMN extract, Boc-AAPAN substrate, pH 7.5; 50% inhibition 2 minutes after zero time. The method, then:
Protocol Enzyme Assays for the Inhibition of Human Polymorphonuclear Leukocyte Elastase Via Hydrolysis of N-t-Boc-alanyl-alanyl-prolylalanine-p-nitroanilide Reagents:
0.05M TES (N-tris[hydroxymethyl]methyl-2-amino-ethanesulfonic acid) Buffer, pH 7.5.
0.2 mM N-t-Boc-alanyl-alanyl-prolyl-alanine-p-nitroanilide (Boc-AAPAN).
To prepare substrate, the solid (m.w. 550) was first dissolved in 10.0 ml DMSO. Buffer at pH 7.5 was then added to a final volume of 100 ml.
Crude extract of human polymorphonuclear leukocytes (PMN) containing elastase activity.
Inhibitors (cephalosporin sulfone esters) to be tested dissolved in DMSO just before use.
To 1.0 ml of 0.2 mM Boc-AAPAN in a cuvette, 0.01-0.1 ml of DMSO with or without inhibitor was added. After mixing, a measurement was taken at 410 mμ to detect any spontaneous hydrolysis due to presence of test compound. 0.05 Milliliters of PMN extract was then added and the ΔOD/min at 410 mμ was measured and recorded. Beckman model 35 spectrophotometer was used.
Results were reported as ED50, i.e., effective dosage in micrograms per milliliter (μg/ml) for 50% inhibition of the enzyme activity 2 minutes after zero time.
The elastase activity in the crude PMN extract may vary from one preparation to another. A control of each new batch is run, and the volume added in the assay procedure is adjusted according to activity.
Take `CO[C@H]1C(=O)N2C(c3nnn[nH]3)=C(COC(C)=O)CS(=O)(=O)[C@H]12` [R^1=OCH3, A=CH3COO, R=H, Q^1=H, 3-Acetoxymethyl-7α-methoxy-4-(tetrazol-5-yl)-3-cephem-1,1-dioxide]: half-maximal inhibition (IC50) required 58300 nM. As for `COc1ccc(Cn2nnnc2C2=C(COC(=O)N(C)C)CS(=O)(=O)[C@@H]3[C@@H](OC)C(=O)N23)cc1` [R^1=OCH3, A=(CH3)2NCOO, R=PMB, Q^1=H], the IC50 (in general, the concentration that inhibits the measured activity by half) is 1420 nM. On the same count and under the same terms, next, `COc1ccc(Cn2nnnc2C2=C(COC(C)=O)CS(=O)(=O)[C@@H]3[C@@H](OC)C(=O)N23)cc1` [R^1=OCH3, A=CH3COO, R=PMB, Q^1=H, 3-acetoxymethyl-7α-methoxy-4-[1-(p-methoxybenzyl)tetrazol-5-yl]-3-cephem-1,1-dioxide]: 1730 nM.

The compound `CO[C@H]1C(=O)N2C(c3nnn[nH]3)=C(COC(=O)N(C)C)CS(=O)(=O)[C@H]12` [R^1=OCH3, A=(CH3)2NCOO, R=H, Q^1=H] showed an IC50 of 5370 nM.

Compound `CO[C@H]1C(=O)N2C(c3nnn[nH]3)=C(COC(=O)NCc3ccccc3)CS(=O)(=O)[C@H]12` [R^1=OCH3, A=.phi.CH2NHCOO, R=H, Q^1=H, 3-(N-Benzyl-carbamoyloxy-methyl)-7α-methoxy-4-(1H-tetrazol-5-yl)-3-cephem-1,1-dioxide] gave an IC50 of 9210 nM. Take `COc1ccc(Cn2nnnc2C2=C(COC(=O)NCc3ccccc3)CS(=O)(=O)[C@@H]3[C@@H](OC)C(=O)N23)cc1` [R^1=OCH3, A=.phi.CH2NHCOO, R=PMB, Q^1=H, 3-(N-benzyl-carbamoyloxy-methyl)-7α-methoxy-4-(1-p-methoxybenzyl-tetrazol-5-yl)-3-cephem-1,1-dioxide]: inhibition was half-maximal at 541 nM (IC50).

The same experiment, now with this note: Table II; crude PMN extract, Boc-AAPAN substrate, pH 7.5; 50% inhibition 2 minutes after zero time.
`CO[C@H]1C(=O)N2C(c3nnn(CC(=O)O)n3)=C(COC(C)=O)CS(=O)(=O)[C@H]12` [Table II: A=CH3COO, R=CH2COOH, Q^1=H] showed an IC50 of 7470 nM. Regarding `CO[C@H]1C(=O)N2C(c3nnn(Cc4ccc(C(=O)OC(C)(C)C)cc4)n3)=C(COC(C)=O)CS(=O)(=O)[C@H]12` [3-acetoxymethyl-7α-methoxy-4-[2-(p-t-butoxycarbonylbenzyl)tetrazol-5-yl]-3-cephem-1,1-dioxide], it took 75 nM to reach half-maximal inhibition (IC50). On the same count and under the same terms, the figure for `CO[C@H]1C(=O)N2C(c3nnn(Cc4ccccc4C(=O)OC(C)(C)C)n3)=C(COC(C)=O)CS(=O)(=O)[C@H]12` is 562 nM; for `CO[C@H]1C(=O)N2C(c3nnn(Cc4ccc(C(=O)O)cc4)n3)=C(COC(C)=O)CS(=O)(=O)[C@H]12` [3-acetoxymethyl-7α-methoxy-4-[2-(-hydroxycarbonylbenzyl)tetrazol-5-yl]-3-cephem-1,1-dioxide] it is 419 nM; for `CO[C@H]1C(=O)N2C(c3nnn(C)n3)=C(COC(C)=O)CS(=O)(=O)[C@H]12` [Table II: A=CH3COO, R=CH3, Q^1=H] it is 560 nM. For `CO[C@H]1C(=O)N2C(c3nnn(Cc4ccccc4C(=O)O)n3)=C(COC(C)=O)CS(=O)(=O)[C@H]12`, the IC50 was 628 nM.

The same experiment, now with this note: Table III, lower part; crude PMN extract, Boc-AAPAN substrate, pH 7.5; 2 minutes after zero time.
Compound `COc1ccc(Cn2nnnc2C2N3C(=O)C(NC(=O)C(F)(F)F)C3SC2(C)C)cc1` (centres unmarked) [drawing 32, n=0] gave an IC50 of 21900 nM. On the same count and under the same terms, next, `COc1ccc(Cn2nnnc2C2N3C(=O)C(NC(=O)C(F)(F)F)C3S(=O)(=O)C2(C)C)cc1` (centres unmarked) [drawing 32, n=2]: 409 nM.

Still in this experiment, the particulars now being: Table III, upper part; crude PMN extract, Boc-AAPAN substrate, pH 7.5; 2 minutes after zero time.
As for `COc1ccc(Cn2nnnc2[C@@H]2N3C(=O)[C@@H](NC(=O)C(F)(F)F)C3[S+]([O-])C2(C)C)cc1` (some centres unmarked) [drawing 31, n=1], half-maximal inhibition (IC50) was put at 4230 nM.

Consider `COc1ccc(Cn2nnnc2[C@@H]2N3C(=O)[C@@H](NC(=O)C(F)(F)F)C3SC2(C)C)cc1` (some centres unmarked) [drawing 31, n=0], for which the IC50 is 4380 nM. Still for that read-out and setting: next, `COc1ccc(Cn2nnnc2[C@@H]2N3C(=O)[C@@H](NC(=O)C(F)(F)F)C3S(=O)(=O)C2(C)C)cc1` (some centres unmarked) [drawing 31, n=2]: 1020 nM.

The record behind these values is patent publication US4699904A, “Tetrazolyl derivatives of β-lactams useful as elastase inhibitors” (Merck & Co., Inc., priority 1985, dated 1987).
